Measured values: US20240181000A1, “LGG-DERIVED PEPTIDES AND METHODS OF USE THEREOF” (Ohio State Innovation Foundation, priority 2021, published 2024)
Read-outs that look alike come from different tables or passages of the source. No end group written: not given here.

Columns and labels:
[1] = test system: APEC O78; experiment: Agar-well diffusion assay; type: cell-based, E. coli; conditions: whole culture, 24 h
Experimental: Agar-well diffusion assay: To determine the inhibitory activity of commensal and probiotic bacteria against APEC, agar-well diffusion assay was conducted as described previously. Briefly, LB agar plate was spread with 100 μL of APEC O78 (10^7 CFU/mL) and 100 μL of fully grown stationary phase whole cultures (adjusted to OD600: 1) of commensal and probiotic bacteria were aliquoted into the wells bored in the agar plate. The plate was incubated at 37° C., and zone of inhibition was measured at 12 h and 24 h post-incubation. The inhibitory activity of L. rhamnosus GG and B. lactis Bb12 was also tested with different culture volumes (200 μL, 150 μL and 50 μL) and against other APEC serotypes as described above. Assay was also conducted with cell-free supernatants (CF Ss) of L. rhamnosus GG and B. lactis Bb12 and supernatant-free L. rhamnosus GG and B. lactis Bb12 itself. CFSs were prepared by centrifugation of whole cultures at 10,000×g for 10 min at 4° C. followed by filtration through 0.22 μm filter. The supernatant-free cultures were washed once and resuspended in PBS to check the activity of L. rhamnosus GG and B. lactis Bb12 itself. Two independent experiments were conducted. […]

[2] = test system: APEC; type: in vivo, chickens; conditions: in vivo
From the text: FIGS. 57A-57D show the APEC load of chickens (at 7 dpi [days post infection]) treated with either peptides P-1 or P-2.

[3] = test system: Salmonella Brenderup; experiment: MIC against serovars; type: cell-based
Experimental: (§1) Peptide protection against varied Salmonella serovars: To further test the spectrum of the peptides anti-Salmonella capabilities, eight additional Salmonella serovars commonly implicated in foodborne illness (S. Anatum, S. Albany, S. Brenderup, S. Javiana, S. Heidelberg, S. Muenchen, S. Newport, S. Saintpaul) were analyzed. P1, P2, and P4 (selected based on dose response assay results) were added to the assay at their MICs to determine their effect on different serovars. Inhibition was determined using criteria from above.

[4] = test system: Salmonella Saintpaul; experiment: MIC against serovars; type: cell-based
Experimental: as §1

[5] = test system: multiple APEC serotypes; type: cell-based, E. coli
Experimental: Anti-APEC spectrum determination: Peptides (P1, P2, and P3) were tested against multiple APEC serotypes/strains to determine their spectrum of activity. Peptides were added at their MICs and the growth inhibitory activity of the peptides was determined as described above.

[6] = test system: APEC; conditions: in vivo
Experimental: FIGS. 58A-58B show the APEC load after treatment 8 days dpi with LGG and 50 mg/mL of peptides in drinking water.

[7] = test system: Salmonella Javiana; type: cell-based
Experimental: as §1

[8] = test system: APEC O78; type: cell-based, E. coli
Experimental: Anti-APEC activity determination: The anti-APEC activity of peptides was determined in LB broth following CLSI guidelines. Briefly, overnight grown APEC O78 was adjusted to 5×10^5 CFU/mL concentration in fresh LB media. One-hundred microliters of APEC suspension was aliquoted into the wells of the 96-well plate. Peptides were added to the wells at 6 mM and 12 mM concentrations and incubated at 37° C. in TECAN Sunrise™ absorbance microplate reader with kinetic absorbance measurement set at every 30 mins for 12 h. Sterile media and DMSO (solvent) were used as controls. The growth inhibitory activity of the peptides against APEC was calculated using the formula: (OD600 DMSO treated well−OD600 peptide treated well)/OD600 DMSO treated well×100%.
The minimum inhibitory concentration (MIC) was determined for selected peptides (P1, P2, P3, and P4) using similar assay as above. Peptides were added to the wells of the 96-well plate at 6 mM, 9 mM, 12 mM, 15 mM, and 18 mM concentrations. The peptide concentration at which there is no visible APEC growth (no OD increase) was determined as MIC. Two independent experiments were conducted.
Arginine and lysine substituted peptide analogues: The non-essential amino acid residues identified in each peptide were substituted with arginine/lysine to test whether these substitutions enhance the anti-APEC activity of peptides. The MICs of arginine and lysine substituted peptide analogues ([…] (SEQ ID NO:37), […] (SEQ ID NO:38), […] (SEQ ID NO:39), KDENK (SEQ ID NO:41), PDEKK (SEQ ID NO:42), KDEKK (SEQ ID NO:43), KHTAPK (SEQ ID NO:45), VKTAPK (SEQ ID NO:46), VHTKPK (SEQ ID NO:47), and KKTKPK (SEQ ID NO:48)) were determined as above and compared with original peptides.

[9] = test system: ST; experiment: Minimal bactericidal concentration of PN-3 and PN-5; type: cell-based, Salmonella enterica
Experimental: FIGS. 30A-30C show the growth pattern of ST with and without peptide at 9-21 mM concentration. […] The plate was incubated in a TECAN Sunrise™ absorbance microplate reader at 37° C., measuring the OD 600 set at every 30 mins for 12 hrs., followed by bacterial enrichment to determine the minimal bactericidal concentration log CFU/mL.

[10] = test system: various probiotic strains; type: cell-based; conditions: at MIC (PN3 12 mM, PN5 15 mM)
Experimental: FIGS. 16A-16B show the effect of the peptide on the growth of various probiotic strains after treating at their minimal inhibitory concentrations of 12 and 15 mM of PN3 and PN5, respectively. […] FIG. 16B the effect of 15 mM of PN5 peptide. The bacteria (5×10^5 CFU/mL) were treated with peptides and grown at 37° C. for 24 hrs in an anaerobic condition except for E. coli Nissel 1917 and E. coli G58-1, which has grown in aerobic conditions for 12 hrs. After incubation, serially dilute the culture and counted the CFU/mL Bacterial inhibition percentage was calculated by comparing with no peptide treated control.

[11] = test system: various serovars of Salmonella; experiment: PN3 and PN5 on various serovars of Salmonella; type: cell-based; conditions: at MBC, 12 hrs
Experimental: Salmonella serovars (5×10^5 CFU/mL) were treated with peptides and grown at 37° C. for 12 hrs. In addition, bacterial inhibition percentage was calculated by comparing with no peptide control. […] Red: Bactericidal, Green: Non bactericidal.
FIGS. 32A-32B show the growth inhibition percentage of various serovars of Salmonella after treating with minimal inhibitory concentrations of peptides. […] Salmonella serovars (5×10^5 CFU/mL) were treated with peptides and grown at 37° C. for 12 hrs. In addition, bacterial inhibition percentage was calculated by comparing with no peptide control.

[12] = test system: Biofilm-embedded APEC; experiment: Effect of PN peptides on biofilm embedded APEC; type: cell-based, E. coli; conditions: untreated 7.71 ± 0.72
[13] = test system: APEC O78; type: cell-based, E. coli; conditions: 12 h
Experimental: FIGS. 13A-13C show the growth pattern of APEC O78 with and without peptide at 3-21 mM concentration. […] Various concentrations of peptides were added to the APEC suspension (5×10^5 CFU/mL) in a 96-well plate. The plate was incubated in a TECAN Sunrise™ absorbance microplate reader at 37° C., measuring the OD 600 set at every 30 mins for 12 hrs. After 12 hrs. incubation the bacteria were serially diluted and plated to count CFU/mL and calculated the inhibitory percentage using (Control-treated)/treated*100.
FIGS. 14A-14B show the growth pattern of APEC O78, treated with a combination of peptides at 3-21 mM concentration with respect to no peptide control. […] The two peptides were added together to the APEC suspension (5×10^5 CFU/mL) in a 96-well plate. The plate was incubated at 37° C. in a TECAN Sunrise™ absorbance microplate reader, measuring the OD 600 set at every 30 mins for 12 hrs. After incubation, the bacteria were serially diluted and plated to measure CFU/mL and calculate the inhibitory percentage using (Control-treated)/treated*100.

[14] = test system: APEC O78; experiment: Resistance after 13 passages at 0.75×MIC; type: cell-based, E. coli
Experimental: FIGS. 18A-18B show the growth of APEC O78 at MIC of the peptides after growing the bacteria for 13 passages with a sublethal concentration (0.75×MIC) of peptides. […] The OD 600 was measured at every 30 mins for 12 hrs.

[15] = test system: Intracellular APEC; experiment: Effect of PN peptides on intracellular APEC; type: cell-based, E. coli
[16] = test system: APEC; experiment: Kinetic time-inhibition assay of synthesized peptides; type: cell-based, E. coli; conditions: 12 mM, 12 h
Experimental: Peptides were added to the APEC suspension in a 96-well plate, and plate was incubated in TECAN Sunrise™ absorbance microplate reader at 37° C. with OD600 measurement set at every 30 min for 12 hr. The sequences in FIG. 7 are […] (SEQ ID NO: 5), […] (SEQ ID NO: 18), […] (SEQ ID NO: 21), […] (SEQ ID NO: 26), and […] (SEQ ID NO: 32).
The five common highly abundant peptides in CFSs of both L. rhamnosus GG and B. lactis Bb12 ([…] (SEQ ID NO:5), […] (SEQ ID NO:18), […] (SEQ ID NO:21), […] (SEQ ID NO:26) and […] (SEQ ID NO:32)) were synthesized (GenScript, NJ, USA) and tested for anti-APEC activity by conducting kinetic time-inhibition assay as described previously. Briefly, peptides dissolved in dimethyl sulfoxide (DMSO) at 200 mM concentrations were added (12 mM; final concentration of 6% DMSO) to APEC suspension (10^5 CFU/mL; LB media) in a 96-well plate. The plate was then incubated in TECAN Sunrise™ absorbance microplate reader (NC, USA) at 37° C. with OD600 measurement set at every 30 mins for 12 h. Untreated APEC (0% DMSO) and APEC treated with 6% DMSO were included as controls. […] Three independent experiments were conducted.

Row | Substance | Minimal bactericidal concentration [9] [mM] | Growth of B. longum, B. adolescentis, and B. theoiotamicron [10] | Growth of BB12, E. coli Nissel 1917 and E. coli G58-1 [10] | Growth of LGG [10] | Bactericidal effect on eight Salmonella serotypes [11] | Biofilm-embedded APEC [12] [Log CFU/mL] | Minimal inhibitory concentration [13] [mM] | Bacterial resistance against the peptides [14] | Intracellular APEC ([15]; 0.25 X, untreated 2.98 ± 0.87) [Log CFU/mL] | Intracellular APEC ([15]; 0.75 X) [Log CFU/mL] | Intracellular APEC ([15]; 1 X) [Log CFU/mL] | Intracellular APEC ([15]; 1.5 X) [Log CFU/mL] | Inhibition of APEC growth [16] | other results
1 | Bifidobacterium longum |  |  |  |  |  |  |  |  |  |  |  |  |  | Zone of inhibition [1]: 0.0 ± 0.0 mm
2 | NPSRQERR [Peptide P1] |  |  |  |  |  |  |  |  |  |  |  |  |  | Bodyweight [2]: no significant effect; MIC [3]: 18 mM; MIC [4]: 18 mM; Growth inhibition against APEC serotypes [5]: 95.1-100%; Bodyweight [6]: no significant effect; MIC [7]: 18 mM; MIC50 [8]: 14.7 mM
3 | VTDTSGKAGTTKISNV [PN-5] | 21 | promoted the growth | inhibited the growth | slightly affected | killed all serotypes except Saintpaul | 4.95 ± 0.07 | 15 | did not cause bacterial resistance | 2.34 ± 0.11 | 2.30 ± 0.00 | 0.00 ± 0.00 | 0.00 ± 0.00 | completely inhibitory | 
4 | VQAAQAGDTKPIEV [PN-3] | 21 | promoted the growth | inhibited the growth | unaffected | kill all the eight serotypes of Salmonella with no viable colony | 4.21 ± 0.48 | 12 | did not cause bacterial resistance | 2.64 ± 0.23 | 2.59 ± 0.30 | 2.50 ± 0.17 | 0.00 ± 0.00 | completely inhibitory | 
